# From PubChem BioAssay (NCI)
#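 Following 48 hours of exposure in 96-well plates, responses at five concentrations were used to interpolate endpoints linearly. The concentration for 50% growth inhibition is given as GI50. At the TGI there is no net growth.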
# Columns and labels:
# Assay in all cases: NCI anticancer screen, dose series, 48 h
# SR leukemia = system: SR leukemia
# OVCAR-3 ovarian = system: OVCAR-3 ovarian
# OVCAR-5 ovarian = system: OVCAR-5 ovarian
# UACC-62 melanoma = system: UACC-62 melanoma
# SN12C renal = system: SN12C renal
# HCT-116 colon = system: HCT-116 colon
# SNB-75 CNS = system: SNB-75 CNS
# T-47D breast = system: T-47D breast
# MOLT-4 leukemia = system: MOLT-4 leukemia
# HS 578T breast = system: HS 578T breast
# IGROV1 ovarian = system: IGROV1 ovarian
# DU-145 prostate = system: DU-145 prostate
# OVCAR-4 ovarian = system: OVCAR-4 ovarian
# NCI-H23 lung = system: NCI-H23 lung
# HCC-2998 colon = system: HCC-2998 colon
# MALME-3M melanoma = system: MALME-3M melanoma
# MCF7 breast = system: MCF7 breast
# KM12 colon = system: KM12 colon
# SF-539 CNS = system: SF-539 CNS
# TK-10 renal = system: TK-10 renal
# RPMI-8226 leukemia = system: RPMI-8226 leukemia
# SK-MEL-2 melanoma = system: SK-MEL-2 melanoma
# NCI-H522 lung = system: NCI-H522 lung
# HT29 colon = system: HT29 colon
# 786-0 renal = system: 786-0 renal
# HOP-62 NSCLC = system: HOP-62 NSCLC
# M14 melanoma = system: M14 melanoma
# SK-MEL-5 melanoma = system: SK-MEL-5 melanoma
# HL-60(TB) leukemia = system: HL-60(TB) leukemia
# HOP-92 NSCLC = system: HOP-92 NSCLC
# BT-549 breast = system: BT-549 breast
# K-562 leukemia = system: K-562 leukemia
# A549 NSCLC = system: A549 NSCLC
# SF-268 CNS = system: SF-268 CNS
# RXF 393 renal = system: RXF 393 renal
# NCI/ADR-RES ovarian = system: NCI/ADR-RES ovarian
# CCRF-CEM leukemia = system: CCRF-CEM leukemia
# MDA-MB-231 breast = system: MDA-MB-231 breast
# PC-3 prostate = system: PC-3 prostate
# ACHN renal = system: ACHN renal
# NCI-H226 lung = system: NCI-H226 lung
# NCI-H460 lung = system: NCI-H460 lung
# SNB-19 CNS = system: SNB-19 CNS
# SW-620 colon = system: SW-620 colon
# COLO 205 colon = system: COLO 205 colon
# SF-295 CNS = system: SF-295 CNS
# LOX IMVI melanoma = system: LOX IMVI melanoma
# UO-31 renal = system: UO-31 renal
# U251 CNS = system: U251 CNS
# MDA-MB-435 = system: MDA-MB-435
# A498 renal = system: A498 renal
# SK-OV-3 ovarian = system: SK-OV-3 ovarian
# HCT-15 colon = system: HCT-15 colon
# EKVX NSCLC = system: EKVX NSCLC
# UACC-257 melanoma = system: UACC-257 melanoma
# OVCAR-8 ovarian = system: OVCAR-8 ovarian
# CAKI-1 renal = system: CAKI-1 renal
# SK-MEL-28 melanoma = system: SK-MEL-28 melanoma
smiles,measurement,setting,value
c1cc(N2CCCC2)c2nc(-c3[nH]ncc3Nc3ncnc4[nH]ccc34)[nH]c2c1,GI50,SR leukemia,36.2 nM
same,TGI,SR leukemia,26700 nM
same,GI50,OVCAR-3 ovarian,44.1 nM
same,TGI,OVCAR-3 ovarian,663 nM
same,GI50,OVCAR-5 ovarian,115 nM
same,TGI,OVCAR-5 ovarian,2200 nM
same,GI50,UACC-62 melanoma,55.4 nM
same,TGI,UACC-62 melanoma,196 nM
same,GI50,SN12C renal,54.3 nM
same,TGI,SN12C renal,793 nM
same,GI50,HCT-116 colon,25.5 nM
same,TGI,HCT-116 colon,1610 nM
same,TGI,SNB-75 CNS,348 nM
same,GI50,T-47D breast,139 nM
same,TGI,T-47D breast,5970 nM
same,GI50,MOLT-4 leukemia,33.8 nM
same,TGI,MOLT-4 leukemia,4830 nM
same,TGI,HS 578T breast,77.1 nM
same,GI50,IGROV1 ovarian,39.8 nM
same,TGI,IGROV1 ovarian,239 nM
same,GI50,DU-145 prostate,85.3 nM
same,TGI,DU-145 prostate,777 nM
same,GI50,OVCAR-4 ovarian,146 nM
same,TGI,OVCAR-4 ovarian,1140 nM
same,GI50,NCI-H23 lung,69.4 nM
same,TGI,NCI-H23 lung,680 nM
same,GI50,HCC-2998 colon,176 nM
same,TGI,HCC-2998 colon,942 nM
same,GI50,MALME-3M melanoma,160 nM
same,TGI,MALME-3M melanoma,800 nM
same,GI50,MCF7 breast,80.6 nM
same,TGI,MCF7 breast,677 nM
same,GI50,KM12 colon,79.3 nM
same,TGI,KM12 colon,459 nM
same,GI50,SF-539 CNS,20.6 nM
same,TGI,SF-539 CNS,256 nM
same,GI50,TK-10 renal,323 nM
same,TGI,TK-10 renal,1380 nM
same,GI50,RPMI-8226 leukemia,254 nM
same,TGI,RPMI-8226 leukemia,1060 nM
same,GI50,SK-MEL-2 melanoma,53 nM
same,TGI,SK-MEL-2 melanoma,292 nM
same,GI50,NCI-H522 lung,87.3 nM
same,TGI,NCI-H522 lung,1120 nM
same,GI50,HT29 colon,371 nM
same,TGI,HT29 colon,3250 nM
same,GI50,786-0 renal,34.1 nM
same,TGI,786-0 renal,560 nM
same,GI50,HOP-62 NSCLC,100 nM
same,TGI,HOP-62 NSCLC,2030 nM
same,GI50,M14 melanoma,49.5 nM
same,TGI,M14 melanoma,483 nM
same,GI50,SK-MEL-5 melanoma,105 nM
same,TGI,SK-MEL-5 melanoma,424 nM
same,GI50,HL-60(TB) leukemia,32.6 nM
same,TGI,HL-60(TB) leukemia,91.6 nM
same,GI50,HOP-92 NSCLC,29.8 nM
same,TGI,HOP-92 NSCLC,99.9 nM
same,GI50,BT-549 breast,67.2 nM
same,TGI,BT-549 breast,736 nM
same,GI50,K-562 leukemia,< 11.5 nM
same,TGI,K-562 leukemia,> 35000 nM
same,GI50,A549 NSCLC,80.6 nM
same,TGI,A549 NSCLC,455 nM
same,GI50,SF-268 CNS,108 nM
same,TGI,SF-268 CNS,569 nM
same,GI50,RXF 393 renal,22.8 nM
same,TGI,RXF 393 renal,92.9 nM
same,GI50,NCI/ADR-RES ovarian,141 nM
same,TGI,NCI/ADR-RES ovarian,1260 nM
same,GI50,CCRF-CEM leukemia,28 nM
same,TGI,CCRF-CEM leukemia,1310 nM
same,GI50,MDA-MB-231 breast,62.8 nM
same,TGI,MDA-MB-231 breast,418 nM
same,GI50,PC-3 prostate,26.1 nM
same,TGI,PC-3 prostate,446 nM
same,GI50,ACHN renal,30.2 nM
same,TGI,ACHN renal,679 nM
same,GI50,NCI-H226 lung,41 nM
same,TGI,NCI-H226 lung,204 nM
same,GI50,NCI-H460 lung,90.8 nM
same,TGI,NCI-H460 lung,416 nM
same,GI50,SNB-19 CNS,96.2 nM
same,TGI,SNB-19 CNS,1580 nM
same,GI50,SW-620 colon,68.4 nM
same,TGI,SW-620 colon,548 nM
same,GI50,COLO 205 colon,285 nM
same,TGI,COLO 205 colon,2030 nM
same,GI50,SF-295 CNS,44.1 nM
same,TGI,SF-295 CNS,337 nM
same,GI50,LOX IMVI melanoma,25.4 nM
same,TGI,LOX IMVI melanoma,342 nM
same,GI50,UO-31 renal,27.8 nM
same,TGI,UO-31 renal,267 nM
same,GI50,U251 CNS,47.4 nM
same,TGI,U251 CNS,838 nM
same,GI50,MDA-MB-435,94.4 nM
same,TGI,MDA-MB-435,511 nM
same,GI50,A498 renal,20.2 nM
same,TGI,A498 renal,55 nM
same,GI50,SK-OV-3 ovarian,27.6 nM
same,TGI,SK-OV-3 ovarian,586 nM
same,GI50,HCT-15 colon,76.5 nM
same,TGI,HCT-15 colon,584 nM
same,GI50,EKVX NSCLC,151 nM
same,TGI,EKVX NSCLC,1700 nM
same,GI50,UACC-257 melanoma,150 nM
same,TGI,UACC-257 melanoma,1110 nM
same,GI50,OVCAR-8 ovarian,84.7 nM
same,TGI,OVCAR-8 ovarian,1360 nM
same,GI50,CAKI-1 renal,22 nM
same,TGI,CAKI-1 renal,253 nM
same,GI50,SK-MEL-28 melanoma,99.2 nM
same,TGI,SK-MEL-28 melanoma,575 nM
